Results: PubChem BioAssay (NCI)
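48-hour exposure; five concentrations; linearly interpolated endpoints. Definition used: TGI = concentration required for complete inhibition of growth.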

How the values were obtained:
Assay in all cases: NCI anticancer screen, dose series, 48 h
HS 578T breast = tested on: HS 578T breast
SK-MEL-2 melanoma = tested on: SK-MEL-2 melanoma
OVCAR-4 ovarian = tested on: OVCAR-4 ovarian
MOLT-4 leukemia = tested on: MOLT-4 leukemia
MALME-3M melanoma = tested on: MALME-3M melanoma
NCI/ADR-RES ovarian = tested on: NCI/ADR-RES ovarian
SK-MEL-28 melanoma = tested on: SK-MEL-28 melanoma
DU-145 prostate = tested on: DU-145 prostate
K-562 leukemia = tested on: K-562 leukemia
MDA-N = tested on: MDA-N
OVCAR-3 ovarian = tested on: OVCAR-3 ovarian
HOP-92 NSCLC = tested on: HOP-92 NSCLC
HL-60(TB) leukemia = tested on: HL-60(TB) leukemia
RPMI-8226 leukemia = tested on: RPMI-8226 leukemia

SMILES	TGI (HS 578T breast) [µM]	TGI (SK-MEL-2 melanoma) [µM]	TGI (OVCAR-4 ovarian) [µM]	TGI (MOLT-4 leukemia) [µM]	TGI (MALME-3M melanoma) [µM]	TGI (NCI/ADR-RES ovarian) [µM]	TGI (SK-MEL-28 melanoma) [µM]	TGI (DU-145 prostate) [µM]	TGI (K-562 leukemia) [µM]	TGI (MDA-N) [µM]	TGI (OVCAR-3 ovarian) [µM]	TGI (HOP-92 NSCLC) [µM]	TGI (HL-60(TB) leukemia) [µM]	TGI (RPMI-8226 leukemia) [µM]
COC1Cc2c(C)c(OC(C)=O)c3cccnc3c2O1 (stereo not given)	> 100	31.2	30.1	43.1	31.9	67.4	53	31	86	46.3	70.5	33.8	25.3	> 100
CC(=O)C1(c2ccccc2)CCN(Cn2sc3nc(C)cc(C)c3c2=O)CC1	> 100	> 100	48	77.3	41.5	> 100	93.1	> 100	> 100	41	> 100	> 100	52.5	> 100
NC(=S)SCCC(=O)O	> 100	> 100	> 100	> 100	> 100	> 100	> 100	> 100	> 100	> 100	> 100	> 100	> 100	> 100
CCOC(=O)C(NNS(=O)(=O)c1ccc(C)cc1)S(=O)(=O)C(F)(F)C(F)(F)C(F)(F)C(F)(F)F (stereo not given)	> 100	> 100	> 100	> 100	> 100	> 100	> 100	> 100	> 100	> 100	> 100	> 100	> 100	> 100
Cc1ccc2c(c1)C(=O)/C(=C1/CCc3ccc(C)cc31)C2	> 100	> 100	> 100	> 100	> 100	> 100	> 100	> 100	> 100	> 100	> 100	> 100	> 100	> 100
O=C1c2ccccc2C(=O)c2c(OCC3CO3)ccc(OCC3CO3)c21 (stereo not given)	36.8	27.8	30.9	0.95	20	8.73	12	13.3	5.96	23.8	10.7	10.7	2.18	19.8
COC(=O)C1([C@@H]2C[C@@H](O)[C@]3(C)CC/C=C(\C)CCC[C@H](C)[C@H](O)[C@@H]2O3)CC1	> 100	> 100	> 100	88.8	> 100	> 100	> 100	> 100	> 100	> 100	> 100	> 100	> 100	> 100
C=CCNC1=C2C[C@@H](C)C[C@@H](OC)[C@H](OC(=O)CN(C)C)[C@H](C)/C=C(\C)[C@@H](OC(N)=O)[C@H](OC)/C=C\C=C(/C)C(=O)NC(=CC1=O)C2=O	47.7	13.9	26	> 41.6	19	> 92.1	25.7	2.72	> 42.1	13.3	13.8	23.3	13.7	> 48.2
CCCCCCNC(=O)c1cc(NCc2cc(OC)ccc2OC)ccc1O	97.9	45.8	70.5	66.5	55.9	48.1	> 100	> 100	47.3	41.8	7.05	31.7	46	35.6
O=C(NO)c1cccc(OCc2ccc(Br)cc2)c1	75.4	50	> 100	18.3	17.6	28.4	> 100	13.7	> 47.5	27.5	> 48.1	46.7	21.9	24.3
CC1=C(C)SC(=C2Sc3c(n(C)c(=O)[nH]c3=O)S2)S1	> 100	> 100	> 100	> 100	> 100	> 100	> 100	> 100	> 100	> 100	> 100	> 100	> 100	> 100
CO/C(=N/N1CC1C(F)(F)F)c1ccncc1 (stereo not given)	> 100	> 100	> 100	> 100	> 100	> 100	> 100	> 100	> 100	> 100	> 100	> 100	> 100	> 100
c1ccc(COCC23CCN(Cc4ccccc4)C(CC(OCc4ccccc4)C2)S3)cc1 (stereo not given)	> 100	> 100	> 100	69.9	> 100	> 100	> 100	> 100	> 100	> 100	> 100	87.4	45.4	> 100
O=C(O)CN1CCNCCN(CC(=O)O)CC1	> 100	> 100	> 100	> 100	> 100	7.3	> 100	> 100	> 100	> 100	> 100	> 100	> 28.6	> 100
CN(C)c1ccc(N=Nc2cccc3ccoc23)cc1	> 100	> 100	> 100	> 100	> 100	> 100	> 100	> 100	> 100	> 100	> 100	> 100	> 74.7	> 100
